From patent publication US9140688B2, “Sperm staining and sorting methods” (INGURAN, LLC, priority 2011, dated 2015)
Like-named read-outs stand apart in the source and are kept apart here.

Legend:
[1] = test system: X- and Y-chromosome bearing bovine sperm stained with Hoechst 33342; experiment: Split quality: height of peak divided by height of valley (PV), flow cytometry of stained bovine sperm; type: cell-based; conditions: for Height of Peak/Height of Valley: Ex 5; for Height of Peak Divided by Height of Valley: Ex 7, Phenol Red 620 μM with Yellow 6 62 μM
[2] = solvent water, cited from earlier work
[3] = test system: membrane compromised bovine sperm stained with Hoechst 33342; experiment: Dead quenching: dead gate intensity divided by live gate intensity, flow cytometry of stained bovine sperm; type: cell-based; conditions: for Dead Intensity (dead gate intensity divided by live gate intensity): Ex 5; for Intensity (dead gate): Hoechst 48 μM
Text: FIG. 4 illustrates an example bivariate plot and univariate histogram of the parameters measured during sex selection by a FACS on a flow cytometer. […] Without a dead quenching dye, both populations of sperm would overlap to a large extent, with unpredictable variations in the dead sperm.
The entire ejaculate of sperm was suspended in first staining buffer, specifically a 7.4 pH TALP described in TABLE 1, to a concentration of 160×10^6 sperm per mL (determined on nucleocounter) and divided into three aliquots of about 20 mL into 50 mL Falcon tubes and pre-warmed for 10 minutes at 34° C. The DNA selective fluorescent dye, Hoechst 33342, was added and samples were held at 34° C. for 60 minutes. 3 different Hoechst 33342 Stain Levels were used=12 μL, 14 μL and 16 μL per 2 mL (effective concentrations of 48 μM, 56 μM, 64 μM).
Preparation of the second buffer including the dead quenching dye—A 2 L bag of TALP, described in TABLE 1, was adjusted to pH 5.60 using HCl and then sterile filtered. […] For each of the four dyes tested (R40—red food dye No. 40, Y5—yellow food dye No. 5, Y6—yellow food dye No. 6 and PR—phenol red), an appropriate number of milligrams of each powder was placed in a Erlenmeyer Flask and then an exact amount of TALP pH 5.60 was added to create a […] concentration of the dye. The result was a working TALP stock for each dye with a 100% (125 μM) relative amount of dye 50% relative (62.5 μM) and 20% relative (25 μM) solutions were made by dilution of 100% by TALP pH 5.60.
After this “bulk” staining for 60 minutes, 1 mL aliquots of stained sperm were combined with 1 mL aliquots of the second buffer including the dead quenching dyes. Samples sat for approximately 30 minutes at room temperature before being analyzed on a MoFlo SX (Beckman Coulter, USA) sperm sorting flow cytometer. Event rates were held as close to 13,000 as possible at the point of data acquisition.
The total number of individual treatments was 42 tubes, each containing 2 mL of stained sample. The alignment of the sorter was established using nuclei and confirmed with live sample from the 50% Red 40 series. Once good alignment was established, each tube was placed on the sorter long enough to establish a stabile dead gate population (about 30 seconds) and then a screenshot was taken and saved as a .jpeg image. This approach of rapidly documenting each sample is used to assure the most consistent alignment between all samples. Realignment of sorter will not cause differences in the intensities of live and dead gate populations but will cause differences in split quality.
FIG. 4 illustrates an example histogram. The ratio of dead gate intensity divided by live gate intensity is created by dividing the distance “A” by the distance “B” shown as a percentage. Lower values mean higher levels of quenching. The ratio of peak height divided by valley height is created by dividing the distance “C” by the distance “D”. A value of 1.00 means “no split” while higher values mean “better splits”. […]

[4] = dye 62.5 μM, Hoechst 12 μL/2 mL
[5] = dye 62.5 μM, Hoechst 14 μL/2 mL
[6] = dye 62.5 μM, Hoechst 16 μL/2 mL

SMILES: O=S1(=O)OC(c2ccc(O)cc2)(c2ccc(O)cc2)c2ccccc21 [Phenol Red, phenolsulfonphthalein]
- Height of Peak/Height of Valley ([1]; dye 25 μM, Average of 12 and 14 μL series): 1.74
- Height of Peak/Height of Valley ([1]; dye 25 μM, Hoechst 12 μL/2 mL): 1.82
- Height of Peak/Height of Valley ([1]; dye 25 μM, Hoechst 14 μL/2 mL): 1.65
- Height of Peak/Height of Valley ([1]; dye 25 μM, Hoechst 16 μL/2 mL): 1.00
- Height of Peak/Height of Valley ([1]; dye 62.5 μM, Average of 12 and 14 μL series): 1.75
- Height of Peak/Height of Valley [1, 4]: 1.62
- Height of Peak/Height of Valley [1, 5]: 1.87
- Height of Peak/Height of Valley [1, 6]: 1.00
- Height of Peak/Height of Valley ([1]; dye 125 μM, Average of 12 and 14 μL series): 1.62
- Height of Peak/Height of Valley ([1]; dye 125 μM, Hoechst 12 μL/2 mL): 1.49
- Height of Peak/Height of Valley ([1]; dye 125 μM, Hoechst 14 μL/2 mL): 1.75
- Height of Peak/Height of Valley ([1]; dye 125 μM, Hoechst 16 μL/2 mL): 1.00
- PV ([1]; Ex 6, dye 125 μM, pH 7.40, Hoechst 48 μM): 1.27
- PV ([1]; Ex 6, dye 125 μM, resulting pH 6.70, Hoechst 48 μM): 1.00
- PV ([1]; Ex 6, dye 250 μM, pH 7.40, Hoechst 48 μM): 1.22
- PV ([1]; Ex 6, dye 250 μM, resulting pH 6.70, Hoechst 48 μM): 1.17
- PV ([1]; Ex 6, dye 500 μM, pH 7.40, Hoechst 48 μM): 1.51
- PV ([1]; Ex 6, dye 500 μM, resulting pH 6.70, Hoechst 48 μM): 1.25
- PV ([1]; Ex 6, dye 750 μM, pH 7.40, Hoechst 48 μM): 1.46
- PV ([1]; Ex 6, dye 750 μM, resulting pH 6.70, Hoechst 48 μM): 1.25
- PV ([1]; Ex 6, dye 875 μM, pH 7.40, Hoechst 48 μM): 1.44
- PV ([1]; Ex 6, dye 875 μM, resulting pH 6.70, Hoechst 48 μM): 1.20
- PV ([1]; Ex 6, dye 1250 μM, pH 7.40, Hoechst 48 μM): 1.30
- PV ([1]; Ex 6, dye 1250 μM, resulting pH 6.70, Hoechst 48 μM (understained)): 1.29
- Height of Peak Divided by Height of Valley ([1]; cells 100 million per mL): 1.49
- Height of Peak Divided by Height of Valley ([1]; cells 150 million per mL): 1.34
- Height of Peak Divided by Height of Valley ([1]; cells 250 million per mL): 1.43
- Height of Peak Divided by Height of Valley ([1]; cells 300 million per mL): 1.36
- PV ([1]; Ex 8, Bull 1, Hoechst 44 μM, PR 250 μM with Y6 50 μM): 1.52
- PV ([1]; Ex 8, Bull 1, Hoechst 44 μM, PR 500 μM alone): 1.97
- PV ([1]; Ex 8, Bull 1, Hoechst 60 μM, PR 375 μM alone): 2.38
- PV ([1]; Ex 8, Bull 1, Hoechst 60 μM, PR 375 μM with Y6 50 μM): 2.38
- PV ([1]; Ex 8, Bull 1, Hoechst 60 μM, PR 1200 μM with R40 20 μM): 2.12
- PV ([1]; Ex 8, Bull 2, Hoechst 28 μM, PR 375 μM alone): 1.96
- PV ([1]; Ex 8, Bull 2, Hoechst 28 μM, PR 375 μM with Y6 50 μM): 2.05
- PV ([1]; Ex 8, Bull 2, Hoechst 44 μM, PR 225 μM with Y6 50 μM): 1.56
- PV ([1]; Ex 8, Bull 2, Hoechst 44 μM, PR 375 μM with R40 20 μM): 1.64
- PV ([1]; Ex 8, Bull 2, Hoechst 44 μM, PR 375 μM with Y6 50 μM): 1.75
- PV ([1]; Ex 8, Bull 2, Hoechst 60 μM, PR 375 μM with Y6 50 μM): 1.69
- PV ([1]; Ex 8, Bull 2, Hoechst 60 μM, PR 375 μM with Y6 375 μM): 2.31
- effect of addition on split quality, in words ([1]; Ex 8, each Hoechst level, with Red 40 or Yellow 6): always improved split quality
- split enhancing effect compared to control, in words ([1]; Ex 10, 15, 45, 125 μM, averaged over 8 bulls): consistent split improvements at all concentrations after 30 minutes
- Expected Absorption Maxima ([2]; longer-wavelength local maximum): 560 nm
- Expected Absorption Maxima ([2]; shorter-wavelength local maximum): 440 nm
- Dead Intensity (dead gate intensity divided by live gate intensity) ([3]; dye 25 μM, Average of Hoechst levels): 94%
- Dead Intensity (dead gate intensity divided by live gate intensity) ([3]; dye 25 μM, Hoechst 12 μL/2 mL): 94%
- Dead Intensity (dead gate intensity divided by live gate intensity) ([3]; dye 25 μM, Hoechst 14 μL/2 mL): 97%
- Dead Intensity (dead gate intensity divided by live gate intensity) ([3]; dye 25 μM, Hoechst 16 μL/2 mL): 90%
- Dead Intensity (dead gate intensity divided by live gate intensity) ([3]; dye 62.5 μM, Average of Hoechst levels): 87%
- Dead Intensity (dead gate intensity divided by live gate intensity) [3, 4]: 90%
- Dead Intensity (dead gate intensity divided by live gate intensity) [3, 5]: 90%
- Dead Intensity (dead gate intensity divided by live gate intensity) [3, 6]: 80%
- Dead Intensity (dead gate intensity divided by live gate intensity) ([3]; dye 125 μM, Average of Hoechst levels): 79%
- Dead Intensity (dead gate intensity divided by live gate intensity) ([3]; dye 125 μM, Hoechst 12 μL/2 mL): 80%
- Dead Intensity (dead gate intensity divided by live gate intensity) ([3]; dye 125 μM, Hoechst 14 μL/2 mL): 80%
- Dead Intensity (dead gate intensity divided by live gate intensity) ([3]; dye 125 μM, Hoechst 16 μL/2 mL): 78%
- amount of dye needed for a similar dead gate intensity ratio as red food dye No. 40 and yellow food dye No. 6 ([3]; Ex 6): twelve times more
- Intensity (dead gate) ([3]; Ex 6, dye 125 μM, pH 7.40): 85%
- Intensity (dead gate) ([3]; Ex 6, dye 125 μM, resulting pH 6.70): 79%
- Intensity (dead gate) ([3]; Ex 6, dye 250 μM, pH 7.40): 76%
- Intensity (dead gate) ([3]; Ex 6, dye 250 μM, resulting pH 6.70): 70%
- Intensity (dead gate) ([3]; Ex 6, dye 500 μM, pH 7.40): 66%
- Intensity (dead gate) ([3]; Ex 6, dye 500 μM, resulting pH 6.70): 67%
- Intensity (dead gate) ([3]; Ex 6, dye 750 μM, pH 7.40): 56%
- Intensity (dead gate) ([3]; Ex 6, dye 750 μM, resulting pH 6.70): 55%
- Intensity (dead gate) ([3]; Ex 6, dye 875 μM, pH 7.40): 47%
- Intensity (dead gate) ([3]; Ex 6, dye 875 μM, resulting pH 6.70): 45%
- Intensity (dead gate) ([3]; Ex 6, dye 1250 μM, pH 7.40): 43%
- Intensity (dead gate) ([3]; Ex 6, dye 1250 μM, second buffer pH 5.60 (resulting pH 6.70)): 41%
